Laboratory results from US20180064738A1, “METHOD OF TREATING INFECTIONS USING SILOXANE DERIVATIVES” (priority 2014, published 2018).

Tests used:
[1] = system: human head and neck cancer cell line (HTB41/-43); test: Intratumoral injection of head and neck cancer tumors in nude mice; assay type: in vivo; settings: tumors in the abdomen injected, over 10 days; K-21 at 5% by weight
Method: Nude mice were injected with human head and neck cancer cell line (HTB41/-43). […] The size of the sham injected tumors grew most rapidly over 10 days.

[2] = system: IL-1; test: Flow cytometry of skin cells for the inflammatory cytokine IL-1; assay type: in vivo, C57/BL6 mice; settings: Group II, DMBA alone
Method: These animals received no other treatment.
Flow cytometry analyses: The skin and some associated soft tissues on the backs of all mice were excised. Representative portions of the skin and dermis were prepared for flow cytometry analysis by being divided into single cell suspensins using a 100 μm cell strainer followed by centrifugation (1500 rpm, 10 mm). Analysis of cells for detection of the inflammatory cytokine IL-1 was performed by fixing, permeabilizing, and staining of cells and running flow cyctopmetry using a FACS Calibur BD Flow Cytometer.

[3] = system: shaved skin of mice; test: Topical irritation and DMBA skin tumor study in mice; settings: Group II
Method: K-21 was dissolved in acetone to enhance its ability to wet the shaved skin on the backs of experimental mice. Mice in the positive control group were treated with a topical chemical carcinogenic agent, dimethybena(α)anthracene (DMBA), dissolved in acetone.
Thirty adult C57/BL6 mice were randomly divided into three groups of ten animals each to evaluate the topical irritation and potential anti-inflammatory properties of K-21. The hair on the back of all mice were shaved off with electric clippers.
Group 1 animals received topical application of K-21 (100 μg/100 μL) in acetone twice a week for two weeks (days 3, 6, 9, and 12) over the shaved area. These animals received no other treatment. Group II mice received a topical single dose of DMBA (100 μg/100 μL) in acetone over the shaved skin on the animals back on day 7. Group III animals received the same treatment as Group II mice on day 7 plus they were treated with topical K-21, twice a week before (days 3, 6) and one week after (days 9 and 12) a single DMBA application on day 7.
All animals were weighed daily, before and during the study to compare the weight gains of animals in all three groups. The behavior (eating, drinking, etc.) was monitored on a daily basis to determine if there was any gross skin irritation or initiation of tumors. […]

## N.N.[Cl][Pt][Cl] [Cisplatin]
[1]
  tumor growth: grew the least

## Cc1c2ccccc2c(C)c2c1ccc1ccccc12 [DMBA, dimethybena(α)anthracene]
[2]
  IL-1 positive cells of the total number of cells: 6%
[3]; single topical dose of DMBA on day 7, sacrificed day 14
  tumor formation: Tumors formed in all ten
[3]; single topical dose of DMBA, day 14
  tumor diameter: about 0.5 cm
